This note sets out measurements from patent publication US20240400555A1 (Initial Therapeutics, Inc., priority 2023, published 2024).

Each structure is given as a SMILES string.

This test relates to HCT-116 Firefly-luciferase reporter cells. Kind of test: Cellular c-MYC Reporter Assay. It is filed as cell-based. Conditions: Homo sapiens; untitled table following Table 8a; HCT-116 Firefly-luciferase reporter cells, 24 h; read-out: pIC50 (converted). Here is the method:
HCT-116 Firefly-luciferase reporter cells (BPS Bioscience) were seeded in 96-well tissue-culture treated sterile plates (Greiner Bio-One) at 5e4 cells/mL in 100 μL complete growth media (McCoy's 5A+10% FBS, +1% Pen-Strep, +1% G418). Cells were incubated at 37° C. with 5% CO2 for 4-6 h then treated with 3× compound solution in 50 μL complete growth media for a final volume of 150 μL per well with 0.2% DMSO. After 24 h incubation at 37° C. with 5% CO2, plates were allowed to equilibrate to RT for 20 min then developed by addition of 100 μL ONE-Glo Luciferase detection reagent (Promega), incubated at RT for 10 min. Luminescence was recorded using a SpectraMax i3x plate reader (Molecular Devices) and analyzed using Prism GraphPad 9 software.
Turning to `O=C(c1ccc(-n2nnc3cccnc32)cc1F)N(c1ncccc1-c1cc[nH]n1)[C@@H]1CCCNC1` [Example 136, (R)—N-(3-(1H-pyrazol-3-yl)pyridin-2-yl)-4-(3H-[1,2,3]triazolo[4,5-b]pyridin-3-yl)-2-fluoro-N-(piperidin-3-yl)benzamide], the IC50 is 1100 nM.

For the compound `Cc1ccnc(N(C(=O)c2ccc(-n3nnc4cccnc43)cc2F)[C@@H]2CCCNC2)c1/C=C/CCO` [Example 137, (R,E)-4-(3H-[1,2,3]triazolo[4,5-b]pyridin-3-yl)-2-fluoro-N-(3-(4-hydroxybut-1-en-1-yl)-4-methylpyridin-2-yl)-N-(piperidin-3-yl)benzamide], the IC50 is 2950 nM.

For `Cc1cccc2ccnc(N(C(=O)c3ccc(-n4nnc5ccc(-c6cc[nH]n6)nc54)cc3F)[C@@H]3CCCNC3)c12` [Example 138, (R)-4-(5-(1H-pyrazol-3-yl)-3H-[1,2,3]triazolo[4,5-b]pyridin-3-yl)-2-fluoro-N-(8-methylisoquinolin-1-yl)-N-(piperidin-3-yl)benzamide], the IC50 was 44.7 nM.

Consider `CNC(=O)c1ccc2nnn(-c3ccc(C(=O)N(c4nccc5cccc(C)c45)[C@@H]4CCCNC4)c(F)c3)c2n1` [Example 139, (R)-3-(3-fluoro-4-((8-methylisoquinolin-1-yl)(piperidin-3-yl)carbamoyl)phenyl)-N-methyl-3H-[1,2,3]triazolo[4,5-b]pyridine-5-carboxamide], for which the IC50 was 170 nM.

Turning to `COC(=O)c1ccc2nnn(-c3ccc(C(=O)N(c4nccc5cccc(C)c45)[C@@H]4CCCNC4)c(F)c3)c2n1` [Example 140, methyl (R)-3-(3-fluoro-4-((8-methylisoquinolin-1-yl)(piperidin-3-yl)carbamoyl)phenyl)-3H-[1,2,3]triazolo[4,5-b]pyridine-5-carboxylate], the IC50 was 240 nM.

In the case of `O=C(c1ccc(I)cc1F)N(c1nccc2cccc(Cl)c12)[C@@H]1CCCNC1` [Example 141, (R)—N-(8-chloroisoquinolin-1-yl)-2-fluoro-4-iodo-N-(piperidin-3-yl)benzamide], the IC50 was 1910 nM.

As to `CCc1nnn(-c2ccc(C(=O)N(c3nccc4cccc(C)c34)[C@@H]3CCCNC3)c(F)c2)n1` [Example 142, (R)-4-(5-ethyl-2H-tetrazol-2-yl)-2-fluoro-N-(8-methylisoquinolin-1-yl)-N-(piperidin-3-yl)benzamide], the IC50 was 79.4 nM.

For `O=C(c1ccc(-n2nnc3cccnc32)cc1F)N(c1nccc2cc(Br)ccc12)[C@@H]1CCCNC1` [Example 143, (R)-4-(3H-[1,2,3]triazolo[4,5-b]pyridin-3-yl)-N-(6-bromoisoquinolin-1-yl)-2-fluoro-N-(piperidin-3-yl)benzamide], the IC50 is 724 nM.

Turning to `O=C(c1ccc(-n2nnc3cccnc32)cc1F)N(c1nccc2cc(F)ccc12)[C@@H]1CCCNC1` [Example 144, (R)-4-(3H-[1,2,3]triazolo[4,5-b]pyridin-3-yl)-2-fluoro-N-(6-fluoroisoquinolin-1-yl)-N-(piperidin-3-yl)benzamide], the IC50 was 603 nM.

With `COc1ccc2c(N(C(=O)c3ccc(-n4nnc5cccnc54)cc3F)[C@@H]3CCCNC3)nccc2c1` [Example 145, (R)-4-(3H-[1,2,3]triazolo[4,5-b]pyridin-3-yl)-2-fluoro-N-(6-methoxyisoquinolin-1-yl)-N-(piperidin-3-yl)benzamide], the IC50 is 525 nM.

As to `O=C(c1ccc(-n2nnc3cccnc32)cc1F)N(c1nccc2cc(CO)ccc12)[C@@H]1CCCNC1` [Example 146, (R)-4-(3H-[1,2,3]triazolo[4,5-b]pyridin-3-yl)-2-fluoro-N-(6-(hydroxymethyl)isoquinolin-1-yl)-N-(piperidin-3-yl)benzamide], the IC50 was 562 nM.

For `N#Cc1ccc2c(N(C(=O)c3ccc(-n4nnc5cccnc54)cc3F)[C@@H]3CCCNC3)nccc2c1` [Example 147, (R)-4-(3H-[1,2,3]triazolo[4,5-b]pyridin-3-yl)-2-fluoro-N-(6-cyanoisoquinolin-1-yl)-N-(piperidin-3-yl)benzamide], the IC50 was 1380 nM.

`NC(=O)CCc1ccc2ccnc(N(C(=O)c3ccc(-n4nnc5cccnc54)cc3F)[C@@H]3CCCNC3)c2c1` [Example 148, (R)-4-(3H-[1,2,3]triazolo[4,5-b]pyridin-3-yl)-N-(7-(3-amino-3-oxopropyl)isoquinolin-1-yl)-2-fluoro-N-(piperidin-3-yl)benzamide]: the IC50 is 13800 nM.

Consider `NC(=O)/C=C/c1ccc2ccnc(N(C(=O)c3ccc(-n4nnc5cccnc54)cc3F)[C@@H]3CCCNC3)c2c1` [Example 149, (R,E)-4-(3H-[1,2,3]triazolo[4,5-b]pyridin-3-yl)-N-(7-(3-amino-3-oxoprop-1-en-1-yl)isoquinolin-1-yl)-2-fluoro-N-(piperidin-3-yl)benzamide], for which the IC50 is 3800 nM.

As to `O=C(c1ccc(-n2nnc3cccnc32)cc1F)N(c1nccc2ccc(-c3cncnc3)cc12)[C@@H]1CCCNC1` [Example 150, (R)-4-(3H-[1,2,3]triazolo[4,5-b]pyridin-3-yl)-2-fluoro-N-(piperidin-3-yl)-N-(7-(pyrimidin-5-yl)isoquinolin-1-yl)benzamide], the IC50 was 2290 nM.

With `O=C(c1ccc(-n2nnc3cccnc32)cc1F)N(c1nccc2ccc(-c3cccnc3)cc12)[C@@H]1CCCNC1` [Example 151, (R)-4-(3H-[1,2,3]triazolo[4,5-b]pyridin-3-yl)-2-fluoro-N-(piperidin-3-yl)-N-(7-(pyridin-3-yl)isoquinolin-1-yl)benzamide], the IC50 was 1020 nM.

Consider `O=C(c1ccc(-n2nnc3cccnc32)cc1F)N(c1nccc2ccc(-c3ccn[nH]3)cc12)[C@@H]1CCCNC1` [Example 152, (R)—N-(7-(1H-pyrazol-5-yl)isoquinolin-1-yl)-4-(3H-[1,2,3]triazolo[4,5-b]pyridin-3-yl)-2-fluoro-N-(piperidin-3-yl)benzamide], for which the IC50 was 468 nM.

On to `CNC(=O)OCc1ccc2ccnc(N(C(=O)c3ccc(-n4nnc5cccnc54)cc3F)[C@@H]3CCCNC3)c2c1` [Example 153, (R)-(1-(4-(3H-[1,2,3]triazolo[4,5-b]pyridin-3-yl)-2-fluoro-N-(piperidin-3-yl)benzamido)isoquinolin-7-yl)methyl methylcarbamate], for which the IC50 is 2400 nM.

As for `O=C(c1ccc(-n2nnc3cccnc32)cc1F)N(c1nccc2ccc(CO)cc12)[C@@H]1CCCNC1` [Example 154, (R)-4-(3H-[1,2,3]triazolo[4,5-b]pyridin-3-yl)-2-fluoro-N-(7-(hydroxymethyl)isoquinolin-1-yl)-N-(piperidin-3-yl)benzamide], the IC50 was 1050 nM.

On to `NC(=O)c1ccc2ccnc(N(C(=O)c3ccc(-n4nnc5cccnc54)cc3F)[C@@H]3CCCNC3)c2c1` [Example 155, (R)-1-(4-(3H-[1,2,3]triazolo[4,5-b]pyridin-3-yl)-2-fluoro-N-(piperidin-3-yl)benzamido)isoquinoline-7-carboxamide], for which the IC50 is 5750 nM.

For the compound `N#Cc1ccc2ccnc(N(C(=O)c3ccc(-n4nnc5cccnc54)cc3F)[C@@H]3CCCNC3)c2c1` [Example 156], the IC50 is 7080 nM.

As for `O=C(c1ccc(-n2nnc3cccnc32)cc1F)N(c1ncccc1-c1cc2cnccc2s1)[C@@H]1CCCNC1` [Example 157, (R)-4-(3H-[1,2,3]triazolo[4,5-b]pyridin-3-yl)-2-fluoro-N-(piperidin-3-yl)-N-(3-(thieno[3,2-c]pyridin-2-yl)pyridin-2-yl)benzamide], the IC50 is 501 nM.
